Test results as given in PubChem BioAssay AID2060895 (Molecular Pharmacology Branch, DTP, NCI, 2025).

Tested on: PDC 899932-113-R3-J6 complex spheroid viability
Experiment: Anticancer human tumor 899932-113-R3-J6-PDC patient-derived melanoma cell line growth inhibition [RAS]
Conditions: for IC50: curve of first compound; for viability, T/C: stronger effect = lower value
In short: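 Tumour cells grown as complex spheroids with HUVEC endothelial cells and mesenchymal stem cells, treated with RAS pathway inhibitor combinations. Each agent spans half-log steps from near clinical Cmax, or 10 microM where Cmax is unknown.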

[1] = second compound 0.000949 µM, first compound 0.0316 µM
[2] = second compound 0.000949 µM, first compound 0.1 µM
[3] = second compound 0.000949 µM, first compound 0.316 µM
[4] = second compound 0.000949 µM, first compound 1 µM
[5] = second compound 0.000949 µM, first compound 3.16 µM
[6] = second compound 0.000949 µM, first compound 10 µM
[7] = second compound 0.003 µM, first compound 0.0316 µM
[8] = second compound 0.003 µM, first compound 0.1 µM
[9] = second compound 0.003 µM, first compound 0.316 µM
[10] = second compound 0.003 µM, first compound 1 µM
[11] = second compound 0.003 µM, first compound 3.16 µM
[12] = second compound 0.003 µM, first compound 10 µM
[13] = second compound 0.00949 µM, first compound 0.0316 µM
[14] = second compound 0.00949 µM, first compound 0.1 µM
[15] = second compound 0.00949 µM, first compound 0.316 µM
[16] = second compound 0.00949 µM, first compound 1 µM
[17] = second compound 0.00949 µM, first compound 3.16 µM
[18] = second compound 0.00949 µM, first compound 10 µM
[19] = second compound 0.03 µM, first compound 0.0316 µM
[20] = second compound 0.03 µM, first compound 0.1 µM
[21] = second compound 0.03 µM, first compound 0.316 µM
[22] = second compound 0.03 µM, first compound 1 µM
[23] = second compound 0.03 µM, first compound 3.16 µM
[24] = second compound 0.03 µM, first compound 10 µM
[25] = second compound 0.0949 µM, first compound 0.0316 µM
[26] = second compound 0.0949 µM, first compound 0.1 µM
[27] = second compound 0.0949 µM, first compound 0.316 µM
[28] = second compound 0.0949 µM, first compound 1 µM
[29] = second compound 0.0949 µM, first compound 3.16 µM
[30] = second compound 0.0949 µM, first compound 10 µM
[31] = second compound 0.3 µM, first compound 0.0316 µM
[32] = second compound 0.3 µM, first compound 0.1 µM
[33] = second compound 0.3 µM, first compound 0.316 µM
[34] = second compound 0.3 µM, first compound 1 µM
[35] = second compound 0.3 µM, first compound 3.16 µM
[36] = second compound 0.3 µM, first compound 10 µM
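Wherever viability, T/C is given: spheroids exposed to agents for seven days before readout; 100% = DMSO vehicle control wells.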

In the case of `CC(C)NCC(C(=O)N1CCN(c2ncnc3c2C(C)CC3O)CC1)c1ccc(Cl)cc1` (stereo not drawn) + CCn1c(-c2cc(N3CCN(C)CC3)cnc2C(C)OC)c2c3cc(ccc31)-c1csc(n1)CC(NC(=O)C1CC1C)C(=O)N1CCCC(N1)C(=O)OCC(C)(C)C2, the IC50 (second compound 0.000949 µM) is reported as 1180 nM, the IC50 (second compound 0.003 µM) is reported as < 31.6 nM and the IC50 (second compound 0.00949 µM) is reported as < 31.6 nM. The IC50 (second compound 0.03 µM) was < 31.6 nM, the IC50 (second compound 0.0949 µM) was < 31.6 nM and the IC50 (second compound 0.3 µM) was < 31.6 nM. For the same compound, the viability, T/C [1] was 80.5%, the viability, T/C [2] was 75.4% and the viability, T/C [3] was 61.7%. The viability, T/C [4] was 53.7%, the viability, T/C [5] was 37.1% and the viability, T/C [6] was 14.6%. It also gave a viability, T/C [7] of 34.5%, a viability, T/C [8] of 32.8% and a viability, T/C [9] of 26.5%. For the same compound, the viability, T/C [10] was 19.6%, the viability, T/C [11] was 10% and the viability, T/C [12] was 5.05%. The viability, T/C [13] was 4.77%, the viability, T/C [14] was 3.31% and the viability, T/C [15] was 3.85%. It also gave a viability, T/C [16] of 2.39%, a viability, T/C [17] of 1.83% and a viability, T/C [18] of 1.29%. It also gave a viability, T/C [19] of 3.08%, a viability, T/C [20] of 2.84% and a viability, T/C [21] of 2.3%. For the same compound, the viability, T/C [22] was 1.95%, the viability, T/C [23] was 0.99% and the viability, T/C [24] was 0.77%. The viability, T/C [25] was 2.64%, the viability, T/C [26] was 2.19% and the viability, T/C [27] was 2.43%. For the same compound, the viability, T/C [28] was 1.31%, the viability, T/C [29] was 1.13% and the viability, T/C [30] was 0.37%. It also gave a viability, T/C [31] of 1.88%, a viability, T/C [32] of 2.14% and a viability, T/C [33] of 2.14%. The viability, T/C [34] was 0.97%, the viability, T/C [35] was 0.62% and the viability, T/C [36] was 0.36%.

In the case of `CC(C)n1nc(-c2ccc3oc(N)nc3c2)c2c(N)ncnc21` + CCn1c(-c2cc(N3CCN(C)CC3)cnc2C(C)OC)c2c3cc(ccc31)-c1csc(n1)CC(NC(=O)C1CC1C)C(=O)N1CCCC(N1)C(=O)OCC(C)(C)C2, the IC50 (second compound 0.000949 µM) is reported as 34.8 nM, the IC50 (second compound 0.003 µM) is reported as < 0.316 nM and the IC50 (second compound 0.00949 µM) is reported as < 0.316 nM. For the same compound, the IC50 (second compound 0.03 µM) was < 0.316 nM, the IC50 (second compound 0.0949 µM) was < 0.316 nM and the IC50 (second compound 0.3 µM) was < 0.316 nM. For the same compound, the viability, T/C (second compound 0.000949 µM, first compound 0.000316 µM) was 82%, the viability, T/C (second compound 0.000949 µM, first compound 0.001 µM) was 63.3% and the viability, T/C (second compound 0.000949 µM, first compound 0.00316 µM) was 73.7%. For the same compound, the viability, T/C (second compound 0.000949 µM, first compound 0.01 µM) was 65%, the viability, T/C [1] was 51.4% and the viability, T/C [2] was 30.5%. It also gave a viability, T/C (second compound 0.003 µM, first compound 0.000316 µM) of 35.6%, a viability, T/C (second compound 0.003 µM, first compound 0.001 µM) of 40.4% and a viability, T/C (second compound 0.003 µM, first compound 0.00316 µM) of 37%. For the same compound, the viability, T/C (second compound 0.003 µM, first compound 0.01 µM) was 34.4%, the viability, T/C [7] was 29.1% and the viability, T/C [8] was 18.6%. For the same compound, the viability, T/C (second compound 0.00949 µM, first compound 0.000316 µM) was 4.03%, the viability, T/C (second compound 0.00949 µM, first compound 0.001 µM) was 3.88% and the viability, T/C (second compound 0.00949 µM, first compound 0.00316 µM) was 4.42%. The viability, T/C (second compound 0.00949 µM, first compound 0.01 µM) was 3.62%, the viability, T/C [13] was 2.93% and the viability, T/C [14] was 2.22%. It also gave a viability, T/C (second compound 0.03 µM, first compound 0.000316 µM) of 2.41%, a viability, T/C (second compound 0.03 µM, first compound 0.001 µM) of 2.53% and a viability, T/C (second compound 0.03 µM, first compound 0.00316 µM) of 2.94%. For the same compound, the viability, T/C (second compound 0.03 µM, first compound 0.01 µM) was 2.25%, the viability, T/C [19] was 2.43% and the viability, T/C [20] was 0.98%. The viability, T/C (second compound 0.0949 µM, first compound 0.000316 µM) was 2.52%, the viability, T/C (second compound 0.0949 µM, first compound 0.001 µM) was 2.03% and the viability, T/C (second compound 0.0949 µM, first compound 0.00316 µM) was 1.78%. For the same compound, the viability, T/C (second compound 0.0949 µM, first compound 0.01 µM) was 1.41%, the viability, T/C [25] was 1.07% and the viability, T/C [26] was 0.65%. The viability, T/C (second compound 0.3 µM, first compound 0.000316 µM) was 1.86%, the viability, T/C (second compound 0.3 µM, first compound 0.001 µM) was 1.82% and the viability, T/C (second compound 0.3 µM, first compound 0.00316 µM) was 2.06%. The viability, T/C (second compound 0.3 µM, first compound 0.01 µM) was 1.52%, the viability, T/C [31] was 1.91% and the viability, T/C [32] was 0.73%.

In the case of `CC(Nc1ccc2c(c1)OCCn1cc(N3C(=O)OCC3C(F)F)nc1-2)C(N)=O` (stereo not drawn) + CCn1c(-c2cc(N3CCN(C)CC3)cnc2C(C)OC)c2c3cc(ccc31)-c1csc(n1)CC(NC(=O)C1CC1C)C(=O)N1CCCC(N1)C(=O)OCC(C)(C)C2, the IC50 (second compound 0.000949 µM) is reported as 129 nM, the IC50 (second compound 0.003 µM) is reported as < 31.6 nM and the IC50 (second compound 0.00949 µM) is reported as < 31.6 nM. The IC50 (second compound 0.03 µM) was < 31.6 nM, the IC50 (second compound 0.0949 µM) was < 31.6 nM and the IC50 (second compound 0.3 µM) was < 31.6 nM. It also gave a viability, T/C [1] of 64.5%, a viability, T/C [2] of 49.2% and a viability, T/C [3] of 39.7%. It also gave a viability, T/C [4] of 38.6%, a viability, T/C [5] of 29.7% and a viability, T/C [6] of 19.4%. It also gave a viability, T/C [7] of 26.1%, a viability, T/C [8] of 19.6% and a viability, T/C [9] of 15.7%. For the same compound, the viability, T/C [10] was 11.4%, the viability, T/C [11] was 9.07% and the viability, T/C [12] was 7.98%. The viability, T/C [13] was 2.72%, the viability, T/C [14] was 1.99% and the viability, T/C [15] was 1.32%. For the same compound, the viability, T/C [16] was 1.55%, the viability, T/C [17] was 0.87% and the viability, T/C [18] was 0.68%. The viability, T/C [19] was 2.18%, the viability, T/C [20] was 1.47% and the viability, T/C [21] was 0.93%. For the same compound, the viability, T/C [22] was 0.68%, the viability, T/C [23] was 0.45% and the viability, T/C [24] was 0.32%. For the same compound, the viability, T/C [25] was 1.46%, the viability, T/C [26] was 1.18% and the viability, T/C [27] was 0.72%. It also gave a viability, T/C [28] of 0.45%, a viability, T/C [29] of 0.31% and a viability, T/C [30] of 0.62%. It also gave a viability, T/C [31] of 1.36%, a viability, T/C [32] of 0.73% and a viability, T/C [33] of 0.51%. It also gave a viability, T/C [34] of 0.35%, a viability, T/C [35] of 0.22% and a viability, T/C [36] of 0.52%.

`C[C@@H](NC(=O)c1ncnc(N)c1Cl)c1ncc(C(=O)Nc2cc(C(F)(F)F)c(Cl)cn2)s1` + CCn1c(-c2cc(N3CCN(C)CC3)cnc2C(C)OC)c2c3cc(ccc31)-c1csc(n1)CC(NC(=O)C1CC1C)C(=O)N1CCCC(N1)C(=O)OCC(C)(C)C2 was tested, and the IC50 (second compound 0.000949 µM) was 5630 nM, the IC50 (second compound 0.003 µM) was 2600 nM and the IC50 (second compound 0.00949 µM) was < 31.6 nM. The IC50 (second compound 0.03 µM) was < 31.6 nM, the IC50 (second compound 0.0949 µM) was < 31.6 nM and the IC50 (second compound 0.3 µM) was < 31.6 nM. For the same compound, the viability, T/C [1] was 104%, the viability, T/C [2] was 113% and the viability, T/C [3] was 124%. For the same compound, the viability, T/C [4] was 127%, the viability, T/C [5] was 82% and the viability, T/C [6] was 18.2%. For the same compound, the viability, T/C [7] was 66.6%, the viability, T/C [8] was 76.1% and the viability, T/C [9] was 83.8%. For the same compound, the viability, T/C [10] was 82.1%, the viability, T/C [11] was 44.4% and the viability, T/C [12] was 12%. It also gave a viability, T/C [13] of 8.34%, a viability, T/C [14] of 12.9% and a viability, T/C [15] of 15.3%. It also gave a viability, T/C [16] of 13.6%, a viability, T/C [17] of 9.29% and a viability, T/C [18] of 4.48%. For the same compound, the viability, T/C [19] was 3.38%, the viability, T/C [20] was 2.96% and the viability, T/C [21] was 2.78%. It also gave a viability, T/C [22] of 2.66%, a viability, T/C [23] of 2.41% and a viability, T/C [24] of 2.96%. The viability, T/C [25] was 2.75%, the viability, T/C [26] was 2.95% and the viability, T/C [27] was 2.73%. The viability, T/C [28] was 2.82%, the viability, T/C [29] was 2.56% and the viability, T/C [30] was 2.32%. For the same compound, the viability, T/C [31] was 2.53%, the viability, T/C [32] was 2.03% and the viability, T/C [33] was 2.73%. The viability, T/C [34] was 2.35%, the viability, T/C [35] was 3.08% and the viability, T/C [36] was 2.77%.
